Test results reported in PMC9738107, “Targeting of the ELR+CXCL/CXCR1/2 Pathway Is a Relevant Strategy for the Treatment of Paediatric Medulloblastomas” (Cells, 2022).
“And” between values parts separate entries of the source, which are not always exact repeats. Equal entries are not always repeated.

Tests used:
[1] = Quantification of C29 in mouse cerebellum postmortem (LC/MS); type: in vivo; conditions: for Amount of C29 in cerebellum: individual animals
Protocol: A 5 mM stock solution of C29 (1.743 mg/mL) in DMSO was prepared. This solution was diluted with a mixture of acetonitrile/water, 8/4, v/v to produce the solution with the highest concentration: 1250 ng/1.2 mL. Successive dilutions with acetonitrile/water, 8/4, v/v provided 5 more standards with concentrations between 50 ng/mL and 1250 ng/mL.
Samples of cerebellum were prepared by dissolving minced biological material in 1.2 mL acetonitrile/water, 8/4, v/v. After sonication for 5 min, the vials were centrifuged (15,000 rpm) and the supernatant was filtered through a […] PTFE microfilter.
All standards and samples were analysed using a LC/MS system consisting of an Agilent 1100 HPLC chain with a degasser, a binary pump, a column oven, an automatic injector, and a UV detector. The column is a Phenomenex Gemini analytical column 3 µm C18 110 A 150 mm × 3 mm × 3 µm, at 25 °C. The solvents are water with 0.1% formic acid (solvent A) and acetonitrile with 0.1% formic acid (solvent B). The gradient is as follows: 10% B to 100% B over 8 min, 100% B over 6 min, 100% B to 10% B over 1 min, and 10% B over 3 min (total time: 18 min). The UV detection is carried out over the range of 190–400 nm (in 2 nm steps). The mass spectrometer is an LCQ Advantage (ThermoScientific, Waltham, MA, USA) of the “ion trap 3D” type, equipped with an electrospray source.
Mass spectrometric detection was carried out in negative mode and in SRM (single reaction monitoring) mode according to the monitoring of the 380.9–194.2 transition. The isolation span of the ion was 2 mass units (193.2–195.2). The applied normalized collision energy was 30%. Each standard and sample were injected in duplicate. Each duplicate was separated by a blank and the concentration of the standards ranged from […]. […] Signals were acquired based on their area and integrated using the ICIS algorithm according to the following parameters: smoothing points: 15; baseline window: 75 scans; area noise factor: 5; peak noise factor: 10. Calibration is external, and the regression was linear. The origin was included in the calibration.
A critical and limiting feature of a drug targeting MB is its ability to cross the blood–brain barrier (BBB) and reach the tumour in the brain. […] However, after 5 days of treatment, 24 h after the last administration, no more C29 was found in the cerebellum of the mice.

HD-MB03 cells = experiment: Clonogenic assay; type: cell-based, human; conditions: HD-MB03, 1 µM
Protocol: (§1) Figure 4 C29 reduces proliferation, migration, and invasion of naïve MB cells. (A) Proliferation of Daoy, ONS-76, HD-MB03, and D341Med wild-type cells after treatment with 1 μM C29 or the control (DMSO), n = 3. (B) Clonogenic assay on Daoy (n = 4), ONS-76 (n = 3) and HD -MB03 (n = 5) cells after treatment with control (DMSO) or C29 (1 μM or 2.5 μM). Scale = 500 μm. (C) Cell migration through the Boyden chamber of Daoy and ONS-76 cells specifically attracted by 200 ng/mL CXCL8. Results are expressed as percentage of control (DMSO) (n = 3). Scale = 1000 μm. (D) Spheroid invasion using 3D culture cell assays on Daoy (n = 4) and ONS-76 cells (n = 3) treated with control (DMSO) or C29 at a concentration of 1 μM on day 0, 1, and 2. Results are expressed as percentage of day 0, n = 4. Scale = 500 μm. Statistics were performed using Student t-test for 2 comparisons only or ANOVA test for multiple comparisons. * p < 0.05, ** p < 0.01, *** p < 0.001. […]
(§2) each month by using PlasmoTest Kit (#10L07‐MM, InvivoGen, Toulouse, France). Daoy and ONS‐76 belong to the Shh genetic subgroup, D341‐Med and HD‐MB03 to group 3. […]
(§3) 150 Daoy/DR1/DR2/ ONS ‐ 76 and 300 HD ‐ MB03/HR1/HR2 cells were seeded in trip‐ licate in 6‐well plates in the presence or absence of treatment (1 or 2∙5μM […] or DMSO as control). On day 9 (Daoy/ONS‐76) and day 11 (HD ‐MB03), cells were fixed in ice‐cold absolute ethanol (Sigma) for 20 min, washed with PBS and then stained with Giemsa 50% for 30 min. The number of clones was quantified using ImageJ software. We only considered clones containing more than 50 cells. […]
Violet. […]
(§4) 5000 cells were plated in 48 multi‐well plates coated with agarose 0∙8%. After two days, spheroids were mixed with 100μl of matrigel mix (200μl of matrigel (Corning Mat‐ rigel Matrix, Fontenay‐sous‐Bois, France), 100 μl collagen I (8 mg/ml, Corning), 80 μl HEPES 1M and 320μl respective medium) in 12 multi‐well plates. […]

ONS-76 cells = experiment: Clonogenic assay; type: cell-based, human
Protocol: as §1, §2, §3
Violet. […]
as §4

Daoy cells = experiment: Clonogenic assay; type: cell-based, human; conditions: 1 µM
Protocol: as §1, §2, §3
Violet. […]
as §4

Structure (SMILES): O=C(Nc1cccc(Cl)c1)Nc1nc2ccc([N+](=O)[O-])cc2s1 [C29, 1-(3-chlorophenyl)-3-(6-nitrobenzo[d]thiazol-2-yl) urea]
- Accumulation in cerebellum upon repeated administration ([1]; 5 days of treatment, 24 h after the last administration): does not accumulate
- Amount of C29 in cerebellum ([1]; gavage 100 mg/kg daily, chronic (5 days), 24 h after last treatment): 0 ng C29/mg cerebellum
- Amount of C29 in cerebellum ([1]; gavage 100 mg/kg, acute (3 h), 100 mg/kg): 0 ng C29/mg cerebellum and 5.394 ng C29/mg cerebellum
- Amount of C29 in cerebellum ([1]; gavage 200 mg/kg daily, chronic (5 days), 24 h after last treatment): 0 ng C29/mg cerebellum
- Amount of C29 in cerebellum ([1]; gavage 200 mg/kg, acute (3 h), 200 mg/kg): 13.1 ng C29/mg cerebellum and 9.3 ng C29/mg cerebellum and 7.4 ng C29/mg cerebellum and 4.7 ng C29/mg cerebellum and 6.4 ng C29/mg cerebellum
- Blood–brain barrier crossing ([1]; oral administration): can cross the blood–brain barrier
- Clone formation (HD-MB03 cells): inhibited clone formation
- Clone formation (ONS-76 cells; ONS-76, 1 µM): some clones were maintained
- Clone formation (ONS-76 cells; ONS-76, 2.5 µM): disappeared completely
- Clone formation (Daoy cells): inhibited clone formation
